Assay results published in US20250367283A1, “MEVALONATE PATHWAY INHIBITOR AS HIGHLY-EFFICIENT VACCINE ADJUVANT” (Tsinghua University, priority 2015, published 2025).

Tests used:
[1] = system: anti-OVA IgG antibody affinity; test: Antibody affinity by sodium thiocyanate disruption; type: in vivo, mice; settings: for antibody affinity vs PBS control: IC50 of sodium thiocyanate, after boost
From the text: Antibody affinity refers to the strength of an antibody to bind to the epitope of an antigen, which is a very important indicator when evaluating an antibody. It is due to gene mutations of antibody-forming cells themselves and selective activation of antigens for B cell clones. The functional state of the body is the result of long-term evolution and continuous adaptation to the external environment, which is of great significance to the defense of the body and the maintenance of autoimmune monitoring. In an in vitro test, the affinity of an antibody is determined by disrupting the antigen-antibody binding by sodium thiocyanate. The determination of antibody affinity is based on the fact that sodium thiocyanate can disrupt the binding of antigen and antibody, and the stronger the affinity of the antibody, the higher the concentration of sodium thiocyanate is required to dissociate the antigen and antibody. From another aspect if the affinity of the antibody is stronger, the effect of an adjuvant is better.
The OVA protein was diluted to a concentration of 2 μg/ml with a carbonate solution of pH 9.6, coated in a 96-well ELISA plate at 50 μl per well, and left at 4° C. overnight. The ELISA plate was washed five times with PBS containing 0.05% Tween 20, blocked with 1% BSA solution at 200 μl per well, and incubated at room temperature for 2 h. The ELISA plate was washed five times with PBST and the serum with certain dilution was added. Specifically, for the dilutions, the PBS group was not diluted, the simvastatin group was diluted 16-fold, the TH-Z80 group was diluted 16-fold, the TH-Z93 group was diluted 32-fold, the TH-Z145 group was diluted 16-fold, the imiquimod group was diluted 8-fold, the PEI group was diluted 8-fold, the aluminum adjuvant group was diluted 8-fold, the MF59 group was diluted 16-fold, the incomplete Freund's adjuvant group was diluted 32-fold, and the complete Freund's adjuvant group was diluted 64-fold. Before adding sodium thiocyanate, the amount of anti-OVA IgG type antibody in the diluted serum was the same, 50 μl per well, and incubated for 2 h at room temperature. After washing the ELISA plate with PBST for five times, 10 mM, 9.5 mM, 9 mM, 8.5 mM, 8 mM, 7.5 mM, 7 mM, 6.5 mM,6 mM, 5.5 mM, 5 mM, 4.5 mM, 4 mM, 3.5 mM, 3 mM, 2.5 mM, 2 mM, 1.5 mM, and 0.5 mM sodium thiocyanate were added to each well at 50 μl per well, and incubated for 30 min at room temperature. After washing the ELISA plate for five times with PBST, HRP-labeled goat-anti-mouse antibody was added to each well at 50 μl per well and incubated for 45 min at room temperature. The ELISA plate was washed for five times with PBST, and a color developing solution of sodium citrate OPD was added. After 10 min of color development in the dark, sulfuric acid was added to terminate the reaction. According to the readings of ELIASA, the Prism software was used to calculate the IC50 of sodium thiocyanate. The higher the IC50 value, the stronger the antibody affinity produced by the immunization.
In an in vitro test, the affinity of the antibody was determined by disrupting the binding of the antigen to the antibody by NaSCN. The procedure was as follows: a 96-well ELISA plate was coated with 2 μg/ml OVA, and blocked with 2% BSA. […] Absorbance values at OD 490 nm were read. The IC50 values of NaSCN inhibition were calculated. […]

[2] = system: anti-OVA IgM and IgG antibodies; test: Rescue experiment of GGPP and GGOH on adjuvant activity; type: in vivo, mice; settings: for effect of GGPP and GGOH on adjuvant effects: GGPP and GGOH added; for IgG and IgM antibody titers vs PBS control: without addition of GGPP or GGOH
Protocol: In particular, we investigated the effect of GGOH and GGPP on the adjuvant activity of simvastatin (HMG-COA reductase inhibitor), TH-Z93 (FPPS inhibitor), and TH-Z145 (GGPPS inhibitor).
Method: Simvastatin, TH-Z93 and TH-Z145 were formulated at a concentration of 10 mg/ml; the concentration of OVA antigen was 20 mg/ml; and GGOH and GGPP were formulated into a series of solutions at concentrations of 200 mg/ml, 100 mg/ml, 40 mg/ml and 20 mg/ml, respectively. For the experimental group, on the one hand, titers of antibodies were measured when immunization was performed without adding GGOH or GGPP while only mixing 10 μl of test compound and 5 μl of OVA antigen. On the other hand, titers of antibodies were measured when immunization was performed after adding GGOH or GGPP; specifically, 10 μl of test compound, 5 μl of OVA antigen and 5 μl of each concentration of GGOH or GGPP (total volume of 20 μl) were mixed and used for immunization in mice by injection at the sole of the right feet. Mice in the control group were treated with PBS and the antigen only, without addition of test compounds and GGOH or GGPP. On Day 7 and Day 14 after immunization, blood was taken from the mice's orbit, and 100 μl was taken for each mouse. The obtained blood was left at 4° C. overnight. The serum was separated, and titers of anti-OVA IgM and IgG antibodies in the serum were determined.

Compound	antibody affinity vs PBS control [1]	antibody affinity compared to PBS ([1]; NaSCN IC50, 7 days after boosting)	effect of GGPP and GGOH on adjuvant effects [2]	IgG and IgM antibody titers vs PBS control [2]
CCCCCCOc1ccc2c(c1)ncn2CC(O)(P(=O)(O)O)P(=O)(O)O [TH-Z80]	significantly high titers and antibody affinities	significantly increased the affinity		
CCC(C)(C)C(=O)O[C@H]1C[C@@H](C)C=C2C=C[C@H](C)[C@H](CC[C@@H]3C[C@@H](O)CC(=O)O3)[C@H]21 [simvastatin, reference compound]	significantly high titers and antibody affinities		effectively inhibit adjuvant effects	significantly higher
(2-(3-(octyloxy)phenyl)ethane-1,1-diyl)bisphosphonic acid [TH-Z145]	significantly high titers and antibody affinities		effectively inhibit adjuvant effects	significantly higher
CCCCCCOc1ccnc(NC(P(=O)(O)O)P(=O)(O)O)c1 [TH-Z93, (((4-(hexyloxy)pyridin-2-yl)amino)methylene)bisphosphonic acid]	significantly high titers and antibody affinities		effectively inhibit adjuvant effects	significantly higher
